Among the test systems are 786-0 renal; A549 NSCLC; MALME-3M melanoma; MDA-MB-435; NCI-H460 lung; PC-3 prostate; RPMI-8226 leukemia; SK-MEL-5 melanoma; SK-OV-3 ovarian; HL-60(TB) leukemia.
What all share (test): DTP human tumour cell line panel, 48 h

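These data come from cells grown in 96-well plates and exposed to compound for 48 hours at five concentrations. GI50 is the concentration that inhibits growth by half. TGI: total growth inhibition.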 Where only a bound is given, the exact number is not on record here.

As a reminder, the TGI is the concentration at which net growth stops. A lower TGI goes with more potent growth arrest. A word on the GI50: it is the concentration giving 50% growth inhibition.

On to `CC(C)(N)CO[C@H]1C[C@H]2CC[C@@]1(C)C2(C)C`, for which the TGI is 30.2 µM with 786-0 renal; greater than 100 µM in the assay with A549 NSCLC; 33.6 µM with MALME-3M melanoma; 30.5 µM in the assay on MDA-MB-435; 36.3 µM in the assay on NCI-H460 lung; greater than 100 µM in the assay on PC-3 prostate. Moreover, the results for the TGI with RPMI-8226 leukemia, with SK-MEL-5 melanoma and in the assay on SK-OV-3 ovarian were 40.7 µM, 32.8 µM and greater than 100 µM, respectively.
For `COc1ccc(NS(=O)c2ccc(-c3ccccc3)cc2)cc1` (stereo not drawn), the TGI with A549 NSCLC, in the assay on HL-60(TB) leukemia, in the assay on MALME-3M melanoma, with MDA-MB-435, in the assay on NCI-H460 lung and in the assay with PC-3 prostate was greater than 100 µM each time. Also, the TGI in the assay on RPMI-8226 leukemia and in the assay on SK-MEL-5 melanoma was greater than 100 µM in each case.
In the case of `NCC[Se][Se]CCN`, the total growth inhibition concentration (TGI) in the assay on 786-0 renal was 29.4 µM; in the assay on A549 NSCLC, 25.3 µM; in the assay with HL-60(TB) leukemia it was 7.57 µM; in the assay with MALME-3M melanoma, 25.2 µM; in the assay with MDA-MB-435, 24.9 µM; in the assay on NCI-H460 lung, 21.9 µM. For the same molecule, the TGI with PC-3 prostate was 27.5 µM; in the assay on RPMI-8226 leukemia, greater than 100 µM; in the assay on SK-MEL-5 melanoma, 18.4 µM; with SK-OV-3 ovarian, 25.8 µM.
Take `O=S1(=O)NNC(=NCc2ccc(Cl)c(Cl)c2)c2ccccc21`: the total growth inhibition concentration (TGI) in the assay on 786-0 renal is greater than 100 µM; with A549 NSCLC it was greater than 100 µM; with HL-60(TB) leukemia it was greater than 100 µM; in the assay on MALME-3M melanoma it was greater than 100 µM; in the assay on NCI-H460 lung, greater than 100 µM; with RPMI-8226 leukemia, 61 µM. The same molecule displayed a TGI in the assay with SK-MEL-5 melanoma greater than 100 µM.
Take `COc1cc2cc[n+](C)c(Cc3ccccc3)c2cc1OC`: the concentration for total growth inhibition (TGI) in the assay on 786-0 renal, in the assay on A549 NSCLC, in the assay on MALME-3M melanoma, in the assay with NCI-H460 lung, in the assay with RPMI-8226 leukemia and in the assay with SK-MEL-5 melanoma was greater than 100 µM in each case. The concentration for total growth inhibition (TGI) with SK-OV-3 ovarian was greater than 100 µM.
Turning to `CNC(C)Cc1ccccc1O` (stereo not drawn), the TGI in the assay with 786-0 renal, in the assay on A549 NSCLC, with HL-60(TB) leukemia, in the assay with MALME-3M melanoma, in the assay on NCI-H460 lung and in the assay with RPMI-8226 leukemia was greater than 100 µM throughout. Besides, the TGI in the assay with SK-MEL-5 melanoma and with SK-OV-3 ovarian was greater than 100 µM each time.
In the case of `Nc1ccc2c(c1)C1=NNC(=O)CC1C2` (stereo not drawn), the TGI in the assay with A549 NSCLC, in the assay on HL-60(TB) leukemia, with MALME-3M melanoma, in the assay with NCI-H460 lung, in the assay on RPMI-8226 leukemia and with SK-MEL-5 melanoma was greater than 100 µM throughout. The TGI with SK-OV-3 ovarian is greater than 100 µM.
For the molecule `CC1SC(c2ccccc2)N(Nc2c3ccccc3nc3ccccc23)C1=O` (stereo not drawn), the TGI with A549 NSCLC, in the assay with MALME-3M melanoma, in the assay with NCI-H460 lung, in the assay with RPMI-8226 leukemia, in the assay with SK-MEL-5 melanoma and in the assay with SK-OV-3 ovarian was greater than 100 µM each time.
As to `O=C(N/C(=C\c1ccccc1[N+](=O)[O-])c1nc2ccccc2[nH]1)c1ccccc1`, the TGI in the assay with MALME-3M melanoma, in the assay with SK-MEL-5 melanoma and with SK-OV-3 ovarian was greater than 100 µM throughout.
As for `CCC(CS(=O)(=O)O)[N+](=O)[O-]` (stereo not drawn), the TGI in the assay on 786-0 renal, with A549 NSCLC, in the assay with HL-60(TB) leukemia, in the assay with MALME-3M melanoma, in the assay with MDA-MB-435 and in the assay on NCI-H460 lung was greater than 100 µM in each case. Also, the concentration for total growth inhibition (TGI) in the assay with PC-3 prostate, with RPMI-8226 leukemia, in the assay with SK-MEL-5 melanoma and with SK-OV-3 ovarian was greater than 100 µM throughout.
With `CN1CCN(c2ccc(-c3ccc4ncc(C#N)c(Nc5ccc(F)c(Cl)c5)c4c3)cc2)CC1`, the GI50 with A549 NSCLC was 2.63 µM; with HL-60(TB) leukemia, 1.68 µM; in the assay with MALME-3M melanoma, 1.74 µM; in the assay on MDA-MB-435 it was 1.89 µM; in the assay with NCI-H460 lung, 2.05 µM; in the assay on PC-3 prostate, 2.08 µM. Besides, the values for the GI50 in the assay with RPMI-8226 leukemia, with SK-MEL-5 melanoma and with SK-OV-3 ovarian were 1.92 µM, 2.19 µM and 2.9 µM, respectively. Moreover, the total growth inhibition concentration (TGI) is 26.6 µM with A549 NSCLC; 4.45 µM with HL-60(TB) leukemia; 4.04 µM in the assay on MALME-3M melanoma; 3.68 µM in the assay on MDA-MB-435; 6.67 µM in the assay on NCI-H460 lung; 7.92 µM with PC-3 prostate. In addition, the TGI with RPMI-8226 leukemia was 5.5 µM; in the assay with SK-MEL-5 melanoma, 5.43 µM; in the assay with SK-OV-3 ovarian, 15.1 µM.
For the molecule `CN(C)CCNc1ccc2ncnc3c2c1C(=O)c1ccccc1-3`, the TGI with 786-0 renal is 5.47 µM; with A549 NSCLC, 1.73 µM; in the assay on HL-60(TB) leukemia it was greater than 23.6 µM; with MALME-3M melanoma, 2.38 µM; in the assay with MDA-MB-435, 6.21 µM; with NCI-H460 lung it was 5.01 µM. Further, the TGI with PC-3 prostate is 7.21 µM; in the assay with RPMI-8226 leukemia, 3.83 µM; in the assay with SK-MEL-5 melanoma, 4.99 µM; in the assay with SK-OV-3 ovarian, greater than 72.4 µM.
For `O=[N+]([O-])c1ccc(N=Nc2c(O)ccc3cc(S(=O)(=O)O)ccc23)cc1`, the TGI in the assay on 786-0 renal, with A549 NSCLC, in the assay on MALME-3M melanoma, in the assay on MDA-MB-435, with PC-3 prostate and in the assay with RPMI-8226 leukemia was greater than 100 µM in each case. The total growth inhibition concentration (TGI) in the assay on SK-MEL-5 melanoma and in the assay on SK-OV-3 ovarian was greater than 100 µM throughout.
As to `C=C(C)[C@@H]1CC[C@]2(C)CC[C@]3(C)[C@H](CC[C@@H]4[C@@]5(C)CC[C@H](OC(=O)c6ccccc6)C(C)(C)[C@@H]5CC[C@]43C)[C@@H]12`, the TGI in the assay on 786-0 renal, in the assay on A549 NSCLC, in the assay with HL-60(TB) leukemia, with MALME-3M melanoma, with MDA-MB-435 and in the assay on NCI-H460 lung was greater than 100 µM each time. For the same molecule, the concentration for total growth inhibition (TGI) in the assay on PC-3 prostate, with RPMI-8226 leukemia, in the assay on SK-MEL-5 melanoma and in the assay with SK-OV-3 ovarian was greater than 100 µM in each case.
`CO[C@H]1[C@@H](O)[C@@H](C)O[C@@H](O[C@H]2CC[C@@]3(C)[C@H](CC[C@@H]4[C@@H]3CC[C@]3(C)[C@@H](C5=CC(=O)OC5)CC[C@]43O)C2)[C@@H]1O`: the concentration for total growth inhibition (TGI) in the assay with 786-0 renal came to 0.01 µM; in the assay on A549 NSCLC, 0.00487 µM; with HL-60(TB) leukemia, 0.0119 µM; with MALME-3M melanoma it was 0.00902 µM; in the assay with MDA-MB-435, 0.0693 µM; with NCI-H460 lung, 0.00625 µM. In addition, the TGI in the assay on PC-3 prostate was 0.0171 µM; in the assay on RPMI-8226 leukemia, 25 µM; with SK-MEL-5 melanoma, 0.0342 µM; with SK-OV-3 ovarian it was 0.0491 µM. Besides, the 50% growth inhibitory concentration (GI50) with RPMI-8226 leukemia was 0.00781 µM.
As to `O=c1[nH][nH]c(=O)[nH]1`, the TGI in the assay on 786-0 renal, with A549 NSCLC, in the assay on HL-60(TB) leukemia, in the assay with MALME-3M melanoma, in the assay on NCI-H460 lung and in the assay on RPMI-8226 leukemia was greater than 100 µM throughout. Further, the concentration for total growth inhibition (TGI) in the assay on SK-MEL-5 melanoma and with SK-OV-3 ovarian was greater than 100 µM in each case.
For the molecule `Cc1nc2ccccc2c(=O)n1-c1n[nH]c2ccccc12`, the TGI in the assay with 786-0 renal, in the assay on A549 NSCLC, with MALME-3M melanoma, in the assay with MDA-MB-435, in the assay on NCI-H460 lung and with PC-3 prostate was greater than 100 µM in each case. The total growth inhibition concentration (TGI) with RPMI-8226 leukemia and with SK-MEL-5 melanoma was greater than 100 µM each time.
`CCn1nc(C)c2c1C(=O)NC(C)C(=O)N2` (stereo not drawn): the total growth inhibition concentration (TGI) in the assay with A549 NSCLC, with MDA-MB-435, in the assay on NCI-H460 lung, in the assay with PC-3 prostate, in the assay on SK-MEL-5 melanoma and in the assay with SK-OV-3 ovarian was greater than 100 µM throughout.
For the molecule `CC(CN(C)C)C(=O)c1ccccc1C(=O)O` (stereo not drawn), the TGI in the assay with 786-0 renal was greater than 100 µM; in the assay on A549 NSCLC, greater than 100 µM; in the assay on HL-60(TB) leukemia it was 49.4 µM; in the assay with MALME-3M melanoma, 83 µM; in the assay on MDA-MB-435 it was 50.9 µM; with PC-3 prostate, 94.5 µM. Moreover, the values for the TGI with RPMI-8226 leukemia, with SK-MEL-5 melanoma and in the assay with SK-OV-3 ovarian were 78 µM, greater than 100 µM and greater than 100 µM, respectively.

The values are drawn from PubChem BioAssay (NCI).
